Our source for the IC50 and inhibition values is patent publication US20050009894A1 (Aventis Pharma S.A., priority 2001, published 2005).

Molecules are shown by their SMILES.

For the first assay, the target named is T1, human KDR enzyme (Homo sapiens, UniProt P35968).
T1 construct: The cytoplasmic domain of human KDR enzyme is cloned in the form of a GST fusion; GST; made in house; host or cells: SF21 insect cells (baculovirus, pFastBac)
T1 sequence (P35968 786-1356 limits assumed): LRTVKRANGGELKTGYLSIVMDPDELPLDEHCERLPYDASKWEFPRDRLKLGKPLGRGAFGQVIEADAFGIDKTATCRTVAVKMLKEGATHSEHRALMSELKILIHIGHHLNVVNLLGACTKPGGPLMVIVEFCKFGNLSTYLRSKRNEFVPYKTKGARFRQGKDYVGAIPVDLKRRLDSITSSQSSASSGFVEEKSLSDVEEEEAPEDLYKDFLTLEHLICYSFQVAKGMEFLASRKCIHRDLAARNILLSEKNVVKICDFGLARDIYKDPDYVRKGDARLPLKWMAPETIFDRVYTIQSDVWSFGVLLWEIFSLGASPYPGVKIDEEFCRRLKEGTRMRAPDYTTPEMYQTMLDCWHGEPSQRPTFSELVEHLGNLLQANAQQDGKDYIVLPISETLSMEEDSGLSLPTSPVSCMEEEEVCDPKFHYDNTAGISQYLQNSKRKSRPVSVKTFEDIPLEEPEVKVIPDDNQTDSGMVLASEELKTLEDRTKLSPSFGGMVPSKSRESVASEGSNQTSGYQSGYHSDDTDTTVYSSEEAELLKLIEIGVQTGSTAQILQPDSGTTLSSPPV
In words: Phosphorylation of the substrate PLCγ by the enzyme KDR in vitro (flashplate technique). The class given is biochemical. The note with it: Table VII, degrees of activity by IC50 range; read-out: Activity. In outline:
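GST-fused human KDR cytoplasmic domain (Sf21 baculovirus, ~60% pure; 100 ng/well) phosphorylating 2 μg GST-PLCγ SH2-SH3 fragment in MOPS pH 7.2 with MgCl2/MnCl2, 1 h at 37° C. Started with γ33P-ATP plus cold ATP (2 μM in start solution); flashplate radioactivity. % inhibition vs no-compound control; IC50 from dose-response curves.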
In the case of `CSc1ccccc1CNC(=O)c1cccc2nc(-c3n[nH]c4ccccc34)[nH]c12` [Example 89, 2-(1H-Indazol-3-yl)-3H-benzoimidazole-4-carboxylic acid 2-methylsulfanyl-benzylamide], the IC50 was below 0.3 µM. Still for that read-out and setting: next, `O=C(NCc1ccc(Br)cc1F)c1ccc2[nH]c(-c3n[nH]c4ccccc34)nc2c1` [Example 159, 2-(1H-Indazol-3-yl)-1H-benzoimidazole-5-carboxylic acid 4-bromo-2-fluoro-benzylamide]: 0.3 to 3 µM; `O=C(NCc1ccoc1)c1cccc2nc(-c3n[nH]c4ccccc34)[nH]c12` [Example 90, 2-(1H-Indazol-3-yl)-3H-benzoimidazole-4-carboxylic acid (furan-3-ylmethyl)-amide]: 0.3 to 3 µM.

For the compound `Cc1cc(F)ccc1-c1ccc2nc(-c3[nH]nc4ccccc34)[nH]c2c1` [Example 137, 3-[6-(4-Fluoro-2-methyl-phenyl)-1H-benzoimidazol-2-yl]-2H-indazole], the IC50 was in the range of 0.3 to 3 µM. The same measure, in the same setting: next, `CCOCCCNC(=O)c1cccc2nc(-c3n[nH]c4ccccc34)[nH]c12` [Example 74, 2-(1H-Indazol-3-yl)-3H-benzoimidazole-4-carboxylic acid (3-ethoxy-propyl)-amide]: above 3 µM; `O=C(NCc1cccs1)c1ccc2[nH]c(-c3n[nH]c4ccccc34)nc2c1` [Example 34, 2-(1H-Indazol-3-yl)-1H-benzoimidazole-5-carboxylic acid (thiophen-2-ylmethyl)-amide]: 0.3 to 3 µM; `NS(=O)(=O)c1ccc(CNC(=O)c2ccc3[nH]c(-c4n[nH]c5ccccc45)nc3c2)cc1` [Example 28, 2-(1H-Indazol-3-yl)-1H-benzoimidazole-5-carboxylic acid 4-(aminosulpnonyl)benzylamide]: below 0.3 µM. The same measure, in the same setting: next, `O=C(COc1cc(-c2nc3ccccc3[nH]2)[nH]n1)C12C[C@H]3C[C@@H](C1)C[C@@H](C2)C3` [Example 206, 1-Adamantan-1-vl-2-[5-(1H-benzoimidazol-2-yl)-1H-pyrazol-3-yloxy]-ethanone]: above 3 µM; `O=C(NCc1cccc(OC(F)(F)F)c1)c1cccc2nc(-c3n[nH]c4ccccc34)[nH]c12` [Example 85, 2-(1H-Indazol-3-yl)-3H-benzoimidazole-4-carboxylic acid 3-trifluoromethoxy-benzylamide]: above 3 µM; `O=C(Oc1cc(-c2nc3ccccc3[nH]2)[nH]n1)c1cccs1` [Example 228, Thiophene-2-carboxylic acid 5-(1H-benzoimidazol-2-yl)-1H-pyrazol-3-yl ester]: above 3 µM. Turning to `O=C1CCc2cc(C(=O)COc3cc(-c4nc5ccccc5[nH]4)[nH]n3)ccc2N1` [Example 209, 6-{2-[5-(1H-Benzoimi-dazol-2-yl)-1H-pyrazol-3-yloxy]-acetyl}-3,4-dihydro-1H-quinolin-2-one], the IC50 is above 3 µM. As to `CN(C)c1ccc(C(=O)COc2cc(-c3nc4ccccc4[nH]3)[nH]n2)cc1` [Example 202, 2-[5-(1H-Benzoimidazol-2-yl)-1H-pyrazol-3-yloxy]-1-(4-dimethylamino-phenyl)-ethanone], the IC50 is above 3 µM. Consider `O=C(NCc1ccc(Cl)cc1F)c1ccc2[nH]c(-c3n[nH]c4ccccc34)nc2c1` [Example 158, 2-(1H-Indazol-3-yl)-1H-benzoimidazole-5-carboxylic acid 4-chloro-2-fluoro-benzylamide], for which the IC50 was in the range of 0.3 to 3 µM.

With `N#Cc1ccc(CNC(=O)c2ccc3[nH]c(-c4n[nH]c5ccccc45)nc3c2)cc1` [Example 59, 2-(1H-Indazol-3-yl)-1H-benzoimidazole-5-carboxylic acid 4-cyano-benzylamide], the IC50 is 0.3 to 3 µM. On to `O=C(COc1cc(-c2nc3ccccc3[nH]2)[nH]n1)C(F)(F)C(F)(F)F` [Example 199, 1-[5-(1H-Benzoimidazol-2-yl)-1H-pyrazol-3-yloxy]-3,3,4,4,4-pentafluoro-butan-2-one], for which the IC50 is above 3 µM.

Consider `Brc1cccc(COc2cc(-c3nc4ccccc4[nH]3)[nH]n2)c1` [Example 185, 2-[5-(3-Bromo-benzyloxy)-2H-pyrazol-3-yl]-1H-benzoimidazole], for which the IC50 lay within 0.3 to 3 µM. Take `Fc1ccc(-c2ccc3nc(-c4[nH]nc5ccccc45)[nH]c3c2)c(F)c1` [Example 135, 3-[6-(2,4-Difluoro-phenyl)-1H-benzoimidazol-2-yl]-2H-indazole]: the IC50 is 0.3 to 3 µM. On the same count and under the same terms, the figure for `O=C(COc1cc(-c2nc3ccccc3[nH]2)[nH]n1)c1ccc(OC(F)(F)F)cc1` [Example 210, 2-[5-(1H-Benzoimidazol-2-yl)-1H-pyrazol-3-yloxy]-1-(4-trifluoromethoxy-phenyl)-ethanone] is above 3 µM; for `c1ccc2c(c1)Sc1cccc(-c3ccc4nc(-c5n[nH]c6ccccc56)[nH]c4c3)c1S2` [Example 105, 3-(6-Thianthren-1-yl-1H-benzoimidazol-2-yl)-2H-indazole] it is above 3 µM; for `c1ccc2c(-c3nc4ccc(-c5ccc6c(c5)OCO6)cc4[nH]3)[nH]nc2c1` [Example 117, 3-(6-Benzo[1,3]dioxole-5-yl-1H-benzoimidazol-2-yl)-2H-indazole] it is 0.3 to 3 µM.

As for `O=C(NCc1ccc([N+](=O)[O-])cc1)c1cccc2nc(-c3n[nH]c4ccccc34)[nH]c12` [Example 79, 2-(1H-Indazol-3-yl)-3H-benzoimidazole-4-carboxylic acid 4-nitro-benzylamide], the IC50 is above 3 µM. On the same count and under the same terms, next, `COc1cccc(CNC(=O)c2cccc3nc(-c4n[nH]c5ccccc45)[nH]c23)c1` [Example 82, 2-(1H-Indazol-3-yl)-3H-benzoimidazole-4-carboxylic acid 3-methoxy-benzylamide]: 0.3 to 3 µM; `O=C(NCc1ccc(Cl)c(F)c1)c1ccc2[nH]c(-c3n[nH]c4ccccc34)nc2c1` [Example 178, 2-(1H-Indazol-3-yl)-1H-benzoimidazole-5-carboxylic acid (3-fluoro-4-chloro-benzyl)amide]: below 0.3 µM. Still for that read-out and setting: the figure for `N#Cc1ccc(C(=O)COc2cc(-c3nc4ccccc4[nH]3)[nH]n2)cc1` [Example 208, 4-{2-[5-(1H-Benzoimi-dazol-2-Yl)-1H-pyrazol-3-yloxy)acetyl}-benzonitrile] is above 3 µM; for `CCC(=O)COc1cc(-c2nc3ccccc3[nH]2)[nH]n1` [Example 201, 1-[5-(1H-Benzoimidazol-2-yl)-1H-pyrazol-3-yloxy]-butan-2-one] it is above 3 µM. On to `CC(C)(C)C(=O)Oc1cc(-c2nc3ccccc3[nH]2)[nH]n1` [Example 215, 2,2-Dimethyl-propionic acid 5-(1H-benzoimidazole-2-yl)-1H-pyrazol-3-yl ester], for which the IC50 was above 3 µM.

In the case of `c1coc(-c2ccc3nc(-c4[nH]nc5ccccc45)[nH]c3c2)c1` [Example 142, 3-(6-Furan-2-yl-1H-benzoimidazol-2-yl)-2H-indazole], the IC50 lay in the range of 0.3 to 3 µM.

Take `CC(=O)c1cccc(-c2ccc3nc(-c4[nH]nc5ccccc45)[nH]c3c2)c1` [Example 129, 1-{3-[2-(2H-Indazol-3-yl)-3H-benzoimidazol-5-yl]-phenyl}-ethanone]: the IC50 was above 3 µM.

Take `CCSc1ccc(-c2ccc3nc(-c4[nH]nc5ccccc45)[nH]c3c2)cc1` [Example 134, 3-[6-(4-Ethylsulfanyl-phenyl)-1H-benzoimidazol-2-yl]-2H-indazole]: the IC50 was above 3 µM. As for `CC(=O)Nc1cccc(OCCCNC(=O)c2ccc3[nH]c(-c4n[nH]c5ccccc45)nc3c2)c1` [Example 55, 2-(1H-Indazol-3-yl)-1H-benzoimidazole-5-carboxylic acid [3-(3-acetylamino-phenoxy)-propyl]-amide], the IC50 is 0.3 to 3 µM. Take `Cc1cc(CNC(=O)c2ccc3[nH]c(-c4n[nH]c5ccccc45)nc3c2)c(C)o1` [Example 53, 2-(1H-Indazol-3-yl)-1H-benzoimidazole-5-carboxylic acid (2,5-dimethyl-furan-3-ylmethyl)-amide]: the IC50 was 0.3 to 3 µM. Regarding `O=C(Oc1cc(-c2nc3ccccc3[nH]2)[nH]n1)C1CCCC1` [Example 223, Cyclopentanecarboxylic acid 5-(1H-benzoimidazol-2-yl)-1H-pyrazol-3-yl ester], the IC50 was above 3 µM. On to `Cc1cc(Cl)ccc1CNC(=O)c1ccc2[nH]c(-c3n[nH]c4ccccc34)nc2c1` [Example 169, 2-(1H-Indazol-3-yl)-1H-benzoimidazole-5-carboxylic acid 4-chloro-2-methyl-benzylamide], for which the IC50 is below 0.3 µM.

For `O=C(NCc1ccccc1C(F)(F)F)c1ccc2[nH]c(-c3n[nH]c4ccccc34)nc2c1` [Example 47, 2-(1H-Indazol-3-yl)-1H-benzoimidazole-5-carboxylic acid 2-trifluoromethyl-benzylamide], the IC50 is 0.3 to 3 µM. In the case of `CC(=O)Nc1ccc(CNC(=O)c2ccc3[nH]c(-c4n[nH]c5ccccc45)nc3c2)cc1` [Example 147, 2-(1H-Indazol-3-yl)-1H-benzoimidazole-5-carboxylic acid 4-acetylamino-benzylamide], the IC50 fell in the range of 0.3 to 3 µM.

Staying with this assay, now noted: product tested at 10 μM; read-out: % of inhibition of the phosphorylation of PLCγ by KDR (product tested at a concentration of 10 μM).
On to `O=C(Nc1ccccc1)c1ccc2[nH]c(-c3n[nH]c4ccccc34)nc2c1` [Example 5, 2-(1H-Indazol-3-yl)-1H-benzimidazole-5-carboxylic acid N-phenylamide], for which the inhibition at 10 µM is 91.9%.

Staying with this assay, now noted: read-out: IC50 (μM) on inhibition of the phosphory-lation of PLCγ by KDR.
As for `Cc1cc(-c2nc3cc(C)c(C)cc3[nH]2)[nH]n1` [Example 20, 5,6-Dimethyl-2-(5-methyl-2H-pyrazol-3-yl)-1H-benzimidazole], the IC50 turned out to be 3.4 µM.

As for `O=C(c1ccc2[nH]c(-c3n[nH]c4ccccc34)nc2c1)N1CCCC1` [Example 9, 2-(1H-Indazol-3-yl)-1H-benzimidazole-5-carboxylic acid N-pyrrolidinoamide], the IC50 is 0.35 µM.
